Reference: patent US20240252454A1, “COMPOSITION COMPRISING AN INHIBITOR OF MITOCHONDRIAL TRANSCRIPTION” (LEAD DISCOVERY CENTER GMBH, priority 2021, published 2024)

Key:
Assay in all cases: SRB assay, IMT combined with inhibitor
Type in all cases: cell-based
A549 = A549 (lung); concentration series of the labelled inhibitor + fixed concentration of IMT (3S)-1-[(2R)-2-[4-(2-chloro-4-fluoro-phenyl)-2-oxo-chromen-7-yl]oxypropanoyl]piperidine-3-carboxylic acid (Table 3: 40 nM, 120 h); negative=synergistic, positive=antagonistic
Procedure: (§1) Solforhodamine B assay is carried out as described in Voigt W. (2005) Sulforhodamine B Assay and Chemosensitivity. (Methods in Molecular Medicine™, vol 110. Humana Press. https://doi.org/10.1385/1-59259-869-2:039).
(§2) The determination of changes in cellular biomass was based on the Solforhodamine B assay format, carried out as described in Voigt W. (2005) Sulforhodamine B Assay and Chemosensitivity. (Methods in Molecular Medicine™, vol 110. Humana Press. https://doi.org/10.1385/1-59259-869-2:039).
(§3) All in vitro cell culture experiments were carried out under near physiological glucose concentrations (5 mM) in at least two independent replicates.
(§4) First, 30 different cell lines from 14 different tissue types were tested in the SRB assay format. The cells were examined individually for changes in growth over a period of 120 hours with dilution series of both inhibitors. Untreated cells were used as a negative control group. Subsequently, a dilution series of the respective MAPK signalling pathway SOCs was treated in combination with a fixed concentration of 40 nM (3S)-1-[(2R)-2-[4-(2-chloro-4-fluoro-phenyl)-2-oxo-chromen-7-yl]oxypropanoyl]piperidine-3-carboxylic acid.

IMR90 = IMR90 (lung); concentration series of the labelled inhibitor + fixed concentration of IMT (3S)-1-[(2R)-2-[4-(2-chloro-4-fluoro-phenyl)-2-oxo-chromen-7-yl]oxypropanoyl]piperidine-3-carboxylic acid (Table 3: 40 nM, 120 h); negative=synergistic, positive=antagonistic
Procedure: as §1, §2, §3, §4

U2OS = U2OS (bone); concentration series of the labelled inhibitor + fixed concentration of IMT (3S)-1-[(2R)-2-[4-(2-chloro-4-fluoro-phenyl)-2-oxo-chromen-7-yl]oxypropanoyl]piperidine-3-carboxylic acid (Table 3: 40 nM, 120 h); negative=synergistic, positive=antagonistic
Procedure: as §1, §2, §3, §4

DU145 = DU145 (prostate); concentration series of the labelled inhibitor + fixed concentration of IMT (3S)-1-[(2R)-2-[4-(2-chloro-4-fluoro-phenyl)-2-oxo-chromen-7-yl]oxypropanoyl]piperidine-3-carboxylic acid (Table 3: 40 nM, 120 h); negative=synergistic, positive=antagonistic
Procedure: as §1, §2, §3, §4

CALU6 = CALU6 (lung); concentration series of the labelled inhibitor + fixed concentration of IMT (3S)-1-[(2R)-2-[4-(2-chloro-4-fluoro-phenyl)-2-oxo-chromen-7-yl]oxypropanoyl]piperidine-3-carboxylic acid (Table 3: 40 nM, 120 h); negative=synergistic, positive=antagonistic
Procedure: as §1, §2, §3, §4

COLO205 = COLO205 (colon); concentration series of the labelled inhibitor + fixed concentration of IMT (3S)-1-[(2R)-2-[4-(2-chloro-4-fluoro-phenyl)-2-oxo-chromen-7-yl]oxypropanoyl]piperidine-3-carboxylic acid (Table 3: 40 nM, 120 h); negative=synergistic, positive=antagonistic
Procedure: as §1, §2, §3, §4

PANC1 = PANC1 (pancreas); concentration series of the labelled inhibitor + fixed concentration of IMT (3S)-1-[(2R)-2-[4-(2-chloro-4-fluoro-phenyl)-2-oxo-chromen-7-yl]oxypropanoyl]piperidine-3-carboxylic acid (Table 3: 40 nM, 120 h); negative=synergistic, positive=antagonistic
Procedure: as §1, §2, §3, §4

MIAPACA2 = MIAPACA2 (pancreas); concentration series of the labelled inhibitor + fixed concentration of IMT (3S)-1-[(2R)-2-[4-(2-chloro-4-fluoro-phenyl)-2-oxo-chromen-7-yl]oxypropanoyl]piperidine-3-carboxylic acid (Table 3: 40 nM, 120 h); negative=synergistic, positive=antagonistic
Procedure: as §1, §2, §3, §4

A375 = A375 (skin); concentration series of the labelled inhibitor + fixed concentration of IMT (3S)-1-[(2R)-2-[4-(2-chloro-4-fluoro-phenyl)-2-oxo-chromen-7-yl]oxypropanoyl]piperidine-3-carboxylic acid (Table 3: 40 nM, 120 h); negative=synergistic, positive=antagonistic
Procedure: as §1, §2, §3, §4

U87MG = U87MG (brain); concentration series of the labelled inhibitor + fixed concentration of IMT (3S)-1-[(2R)-2-[4-(2-chloro-4-fluoro-phenyl)-2-oxo-chromen-7-yl]oxypropanoyl]piperidine-3-carboxylic acid (Table 3: 40 nM, 120 h); negative=synergistic, positive=antagonistic
Procedure: as §1, §2, §3, §4

MHHES1 = MHHES1 (bone); concentration series of the labelled inhibitor + fixed concentration of IMT (3S)-1-[(2R)-2-[4-(2-chloro-4-fluoro-phenyl)-2-oxo-chromen-7-yl]oxypropanoyl]piperidine-3-carboxylic acid (Table 3: 40 nM, 120 h); negative=synergistic, positive=antagonistic
Procedure: as §1, §2, §3, §4

MV4-11 = MV4-11 (hematological); concentration series of the labelled inhibitor + fixed concentration of IMT (3S)-1-[(2R)-2-[4-(2-chloro-4-fluoro-phenyl)-2-oxo-chromen-7-yl]oxypropanoyl]piperidine-3-carboxylic acid (Table 3: 40 nM, 120 h); negative=synergistic, positive=antagonistic
Procedure: as §1, §2, §3, §4

HEPG2 = HEPG2 (liver); concentration series of the labelled inhibitor + fixed concentration of IMT (3S)-1-[(2R)-2-[4-(2-chloro-4-fluoro-phenyl)-2-oxo-chromen-7-yl]oxypropanoyl]piperidine-3-carboxylic acid (Table 3: 40 nM, 120 h); negative=synergistic, positive=antagonistic
Procedure: as §1, §2, §3, §4

A2780 = A2780 (ovary); concentration series of the labelled inhibitor + fixed concentration of IMT (3S)-1-[(2R)-2-[4-(2-chloro-4-fluoro-phenyl)-2-oxo-chromen-7-yl]oxypropanoyl]piperidine-3-carboxylic acid (Table 3: 40 nM, 120 h); negative=synergistic, positive=antagonistic
Procedure: In two studies, the ovarian cell line A2780 was tested for 72 hours with the IMT N,N-dimethyl-2-[4-(o-tolyl)-2-oxo-chromen-7-yl]oxy-propanamide (30 μM-15 nM) and the MEK inhibitor Selumetinib (30 μM-10 nM), or with the IMT 1-[2-[4-(2-chlorophenyl)-2-oxo-chromen-7-yl]oxypropanoyl]piperidine-3-sulfonamide (30 μM-15 nM) and the MEK inhibitor PD318088 (30 μM-10 nM).
as §1, §2, §3, §4

CC(C)(C)c1nc(-c2cccc(NS(=O)(=O)c3c(F)cccc3F)c2F)c(-c2ccnc(N)n2)s1 [Dabrafenib]
difference between the calculated combinatorial index (BLISS) and the observed combinatorial effect (A549): −0.0892 | difference between the calculated combinatorial index (BLISS) and the observed combinatorial effect (IMR90): −0.0104 | difference between the calculated combinatorial index (BLISS) and the observed combinatorial effect (U2OS): −0.0418 | difference between the calculated combinatorial index (BLISS) and the observed combinatorial effect (DU145): −0.0114 | difference between the calculated combinatorial index (BLISS) and the observed combinatorial effect (CALU6): −0.0342 | difference between the calculated combinatorial index (BLISS) and the observed combinatorial effect (COLO205): −0.0114 | difference between the calculated combinatorial index (BLISS) and the observed combinatorial effect (PANC1): 0.0029 | difference between the calculated combinatorial index (BLISS) and the observed combinatorial effect (MIAPACA2): 0.0508 | difference between the calculated combinatorial index (BLISS) and the observed combinatorial effect (A375): 0.0337 | difference between the calculated combinatorial index (BLISS) and the observed combinatorial effect (U87MG): 0.0044 | difference between the calculated combinatorial index (BLISS) and the observed combinatorial effect (MHHES1): −0.0230 | difference between the calculated combinatorial index (BLISS) and the observed combinatorial effect (MV4-11): 0.0205 | difference between the calculated combinatorial index (BLISS) and the observed combinatorial effect (HEPG2): −0.1427 | difference between the calculated combinatorial index (BLISS) and the observed combinatorial effect (A2780): 0.0281

CC(C)Nc1cc(-c2c[nH]c(C(=O)N[C@H](CO)c3cccc(Cl)c3)c2)c(Cl)cn1 [Ulixertinib]
difference between the calculated combinatorial index (BLISS) and the observed combinatorial effect (A549): −0.0185 | difference between the calculated combinatorial index (BLISS) and the observed combinatorial effect (IMR90): 0.0678 | difference between the calculated combinatorial index (BLISS) and the observed combinatorial effect (U2OS): −0.0165 | difference between the calculated combinatorial index (BLISS) and the observed combinatorial effect (DU145): 0.0554 | difference between the calculated combinatorial index (BLISS) and the observed combinatorial effect (CALU6): 0.0100 | difference between the calculated combinatorial index (BLISS) and the observed combinatorial effect (COLO205): 0.0384 | difference between the calculated combinatorial index (BLISS) and the observed combinatorial effect (PANC1): 0.0634 | difference between the calculated combinatorial index (BLISS) and the observed combinatorial effect (MIAPACA2): 0.0431 | difference between the calculated combinatorial index (BLISS) and the observed combinatorial effect (A375): 0.0427 | difference between the calculated combinatorial index (BLISS) and the observed combinatorial effect (U87MG): 0.0859 | difference between the calculated combinatorial index (BLISS) and the observed combinatorial effect (MHHES1): 0.0992 | difference between the calculated combinatorial index (BLISS) and the observed combinatorial effect (MV4-11): 0.0079 | difference between the calculated combinatorial index (BLISS) and the observed combinatorial effect (HEPG2): 0.0953 | difference between the calculated combinatorial index (BLISS) and the observed combinatorial effect (A2780): −0.0025

CC(=O)Nc1cccc(-n2c(=O)n(C3CC3)c(=O)c3c(Nc4ccc(I)cc4F)n(C)c(=O)c(C)c32)c1 [Trametinib]
difference between the calculated combinatorial index (BLISS) and the observed combinatorial effect (A549): −0.0142 | difference between the calculated combinatorial index (BLISS) and the observed combinatorial effect (IMR90): 0.0533 | difference between the calculated combinatorial index (BLISS) and the observed combinatorial effect (U2OS): −0.0358 | difference between the calculated combinatorial index (BLISS) and the observed combinatorial effect (DU145): 0.0287 | difference between the calculated combinatorial index (BLISS) and the observed combinatorial effect (CALU6): −0.0308 | difference between the calculated combinatorial index (BLISS) and the observed combinatorial effect (COLO205): 0.0319 | difference between the calculated combinatorial index (BLISS) and the observed combinatorial effect (PANC1): 0.0596 | difference between the calculated combinatorial index (BLISS) and the observed combinatorial effect (MIAPACA2): 0.1602 | difference between the calculated combinatorial index (BLISS) and the observed combinatorial effect (A375): 0.0510 | difference between the calculated combinatorial index (BLISS) and the observed combinatorial effect (U87MG): 0.0578 | difference between the calculated combinatorial index (BLISS) and the observed combinatorial effect (MHHES1): 0.0760 | difference between the calculated combinatorial index (BLISS) and the observed combinatorial effect (MV4-11): 0.0747 | difference between the calculated combinatorial index (BLISS) and the observed combinatorial effect (HEPG2): 0.0351 | difference between the calculated combinatorial index (BLISS) and the observed combinatorial effect (A2780): 0.0305

O=C(NOC[C@H](O)CO)c1ccc(F)c(F)c1Nc1ccc(I)cc1F [PD 0325901, (R)—N-(2,3-dihydroxypropoxy)-3,4-difluoro-2-((2-fluoro-4-iodophenyl)amino)benzamide]
difference between the calculated combinatorial index (BLISS) and the observed combinatorial effect (A549): −0.0245 | difference between the calculated combinatorial index (BLISS) and the observed combinatorial effect (IMR90): 0.0387 | difference between the calculated combinatorial index (BLISS) and the observed combinatorial effect (U2OS): 0.0014 | difference between the calculated combinatorial index (BLISS) and the observed combinatorial effect (DU145): −0.0558 | difference between the calculated combinatorial index (BLISS) and the observed combinatorial effect (CALU6): 0.0809 | difference between the calculated combinatorial index (BLISS) and the observed combinatorial effect (COLO205): 0.0261 | difference between the calculated combinatorial index (BLISS) and the observed combinatorial effect (PANC1): 0.1000 | difference between the calculated combinatorial index (BLISS) and the observed combinatorial effect (MIAPACA2): 0.0500 | difference between the calculated combinatorial index (BLISS) and the observed combinatorial effect (A375): 0.0418 | difference between the calculated combinatorial index (BLISS) and the observed combinatorial effect (U87MG): 0.0604 | difference between the calculated combinatorial index (BLISS) and the observed combinatorial effect (MHHES1): 0.0437 | difference between the calculated combinatorial index (BLISS) and the observed combinatorial effect (MV4-11): 0.0637 | difference between the calculated combinatorial index (BLISS) and the observed combinatorial effect (HEPG2): 0.0334 | difference between the calculated combinatorial index (BLISS) and the observed combinatorial effect (A2780): −0.0318
